Assay results as given in patent US12357641B2, “Identification of oleanolic acid and plant extract for glucose-6-phosphate dehydrogenase-related disorders including Bag3opathy” (Hong Kong Baptist University, priority 2022, dated 2025).

Assays:
G6PD [1] = assay: Oleanolic acid treatment in normal mice: G6PD protein by ELISA in serum, heart muscle and skeletal muscle; format: in vivo, mouse; settings: for G6PD protein in heart muscle: control 0.36±0.26 ng/mg; for G6PD protein level in serum: control 1.79±0.99 ng/mL
Experimental: BAG3 P209-KI mice were reproduced by mating between the P209L/+ male and female mice. All mice were maintained with free access to food and water in plastic cages at 22±2° C. and kept on a 12-h light/dark cycle. Animal welfare and experimental procedures were carried out in accordance with the related ethical regulations of Yunnan Minzu University. […] Heart muscle and skeletal muscle samples were obtained after cardiac perfusion with cold PBS. Muscle tissues were lysed into homogenate in ice-cold lysis buffer (150 mM NaCl, 50 mM Tris, pH7.5, 1% NP-40, 0.1% sodium deoxycholate) plus 1 mM PMSF. Samples were then sonicated on ice and centrifuged at 10,000 g for 5 min. The concentration of G6PD in serum, heart muscle, and skeletal muscle were determined by G6PD Elisa Kit (Catalog #: SEA716Mu, Cloud-Clone Corp. USA) following the manufacturer's instruction. The plate was read at 450 nm by the microplate reader (iMark, Biorad, USA). The concentration of the total protein from tissue samples was determined by the spectrophotometer (NanoDrop One, Thermo Scientific, USA).
Seventeen normal male C57BL/6 mice, 6-8 weeks of age, were purchased from Hunan SJA Laboratory Animal Co., Ltd (Changsha, China). They were maintained with free access to food and water in plastic cages at 22±2° C. and kept on a 12-h light/dark cycle. Animal welfare and experimental procedures were carried out in accordance with the related ethical regulations of Yunnan Minzu University. Mice were randomly divided into one control group (n=6) and two dug treatment groups (n=5, 6). Oleanolic acid was suspended in 0.5% carboxymethylcellulose sodium (CMC-Na) solution with the concentration of 10 and 2.5 mg/mL. In the control and drug treatment groups, 0.5% CMC-Na and oleanolic acid (50, 200 mg/kg/day) was given orally for 10 days, respectively. On the 11th day, mice were sacrificed, and the serum and tissue samples were prepared and detected as the method described previously.

G6PD [2] = assay: Oleanolic acid treatment in Bag3opathy patient: serum G6PD protein by ELISA; format: in vivo, human; settings: oral capsules 180 mg/day for three months, before treatment 0.09 ng/mL, normal girls 7.25±9.38 ng/mL
Experimental: The concentration of G6P in serum was determined by High Sensitivity G6P Assay Kit (Catalog #: K687-100, BioVision, Inc. USA) following the manufacturer's instruction. Briefly, a volume of 200 μL of samples was deproteinized with 10 kDa MWCO spin filter prior to the reaction. After adding 50 μL of the appropriate reaction mix into each 50 μL of filtrate, the reaction was incubated for 5 min at 37° C. and protected from light. Finally, the concentration of G6P was calculated according the fluorescence intensity (λex=535/λem=587) measured by fluorometer (EnVision 2104 Multilabel Reader, PerkinElmer, USA). The serum levels of G6PD (SEA716Hu, Cloud-Clone Corp), GPI, catalase (CAT), thioredoxin (TXN), and superoxide dismutase 1 (SOD1) were measured by Elisa Kits purchased from Cloud-Clone Crop Inc. (USA). Serum samples were diluted 100 folds in PBS for measurements of CAT and TXN, and were diluted 800 folds for SOD1 test. The activity of PGM was determined by Colorimetric Assay Kit from BioVision (Inc. USA). Samples were prepared and measured at 450 nm by Elisa reader (Benchmark Plus, BioRad, USA) depending on the manufacturer's instructions.
The Bag3opathy patient (body weight of patient: 40 kg) was orally administrated with Chinese medicine supplements containing oleanolic acid (180 mg per day) to evaluate the effects of treatment on BAG3 associated MFM for 3 months. […]

[3] = system: creatine kinase-MB (CK-MB); assay: Oleanolic acid treatment in Bag3opathy patient: creatine kinase-MB (cardiac marker) in blood; format: in vivo, human; settings: oral capsules 180 mg/day for three months, before treatment 24 U/L
Experimental: The Bag3opathy patient (body weight of patient: 40 kg) was orally administrated with Chinese medicine supplements containing oleanolic acid (180 mg per day) to evaluate the effects of treatment on BAG3 associated MFM for 3 months. 3 mL serum was collected for analysis before and after the treatment. The trial was approved the Ethics Committee of Hong Kong Baptist University (HASC/15-16/0268) according to the principles of the Declaration of Helsinki, and obtained the consent form.

CC1(C)CC[C@]2(C(=O)O)CC[C@]3(C)C(=CC[C@@H]4[C@@]5(C)CC[C@H](O)C(C)(C)[C@@H]5CC[C@]43C)[C@@H]2C1 [oleanolic acid, Oleanolic acid]
G6PD protein in skeletal muscle (G6PD [1]; oral 50 mg/kg daily for ten days, control 0.11±0.04 ng/mg, p=0.035): 0.19 ± 0.04 ng/mg
G6PD protein in heart muscle (G6PD [1]; oral 50 mg/kg daily for ten days, p=0.36): 0.54 ± 0.32 ng/mg
G6PD protein level in serum (G6PD [1]; oral 50 mg/kg daily for ten days, p=0.140): 3.74 ± 1.91 ng/mL
G6PD protein in heart muscle (G6PD [1]; oral 200 mg/kg daily for ten days, p=0.011): 0.93 ± 0.43 ng/mg
G6PD protein level in serum (G6PD [1]; oral 200 mg/kg daily for ten days, p=0.049): 4.47 ± 3.07 ng/mL
serum G6PD protein after treatment (G6PD [2]): 2.43 ng/mL
creatine kinase-MB (CK-MB) after treatment [3]: 16 U/L
